Literature values as cited in PMC8356818 (Chemical Science, 2021).

Assays:
[1] = H4qp2 ligand, 25 °C
[2] = direct stopped-flow measurements
[3] = not given; remark: listed apart in the source

Q: Which pKL1 ([1]; KL1 = [(H5qp2)^+][H^+]/[(H6qp2)^2+]) does the source give for Oc1ccc(O)c(CN(CCN(Cc2ccccn2)Cc2cc(O)ccc2O)Cc2ccccn2)c1 [Complex H4qp2, N,N′-bis(2,5-dihydroxybenzyl)-N,N′-bis(2-pyridinylmethyl)-1,2-ethanediamine] here?
A: 4.47 (±0.08)

Q: And the pKL2 ([1]; KL2 = [(H4qp2)][H^+]/[(H5qp2)^+])?
A: 7.18 (±0.03)

Q: With C[C@@H]1N[C@@H]2CCCC[C@H]2NCCN[C@@H]2CCCC[C@H]2N[C@@H](C)c2cccc1n2.[Cl-].[Cl-].[Mn+2] [Complex M40401] as the molecule, how does the catalytic rate [2] read?
A: approximately 1.5 × 10^9 M^−1 s^−1

Q: And the pMn (stability in water)?
A: 4.7

Q: What does the source list for Mn^IIBr8TM-4-PyP^4+?
A: estimated log kcat if the catalyst were fully intact [3]: exceed 8.67; log kcat ([3]; determined by the cytochrome c assay): 8.34; Mn estimated to be lost (release of free manganese) (neutral pH): approximately 30%
